These results are taken from ChEMBL document CHEMBL1201862, “PubChem BioAssay data set” (2004).

The target in data set [1] is T1, Alkaline phosphatase, tissue-nonspecific isozyme (Homo sapiens, UniProt P05186).
T1 sequence (P05186 whole entry): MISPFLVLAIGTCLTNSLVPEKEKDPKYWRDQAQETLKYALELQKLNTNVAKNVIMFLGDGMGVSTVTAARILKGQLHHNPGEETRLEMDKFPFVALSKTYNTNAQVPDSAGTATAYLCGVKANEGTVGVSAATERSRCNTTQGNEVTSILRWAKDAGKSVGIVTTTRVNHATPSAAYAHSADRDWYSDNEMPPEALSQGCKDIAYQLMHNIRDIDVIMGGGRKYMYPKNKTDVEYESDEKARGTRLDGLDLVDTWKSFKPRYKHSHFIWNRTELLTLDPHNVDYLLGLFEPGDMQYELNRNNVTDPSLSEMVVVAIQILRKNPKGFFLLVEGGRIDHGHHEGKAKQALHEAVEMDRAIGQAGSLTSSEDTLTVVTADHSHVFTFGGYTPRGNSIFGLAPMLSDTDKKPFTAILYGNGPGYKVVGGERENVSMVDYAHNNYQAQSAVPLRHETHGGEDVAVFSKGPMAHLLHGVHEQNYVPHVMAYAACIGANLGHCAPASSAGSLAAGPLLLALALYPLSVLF
Put plainly: human TNAP enzyme inhibitors, SAR follow-up, biochemical, luminescent, dose response (AID 1056).

The target of data set [2] is Glyceraldehyde-3-phosphate dehydrogenase (Homo sapiens, UniProt P04406).
Sequence of Glyceraldehyde-3-phosphate dehydrogenase (P04406 whole entry): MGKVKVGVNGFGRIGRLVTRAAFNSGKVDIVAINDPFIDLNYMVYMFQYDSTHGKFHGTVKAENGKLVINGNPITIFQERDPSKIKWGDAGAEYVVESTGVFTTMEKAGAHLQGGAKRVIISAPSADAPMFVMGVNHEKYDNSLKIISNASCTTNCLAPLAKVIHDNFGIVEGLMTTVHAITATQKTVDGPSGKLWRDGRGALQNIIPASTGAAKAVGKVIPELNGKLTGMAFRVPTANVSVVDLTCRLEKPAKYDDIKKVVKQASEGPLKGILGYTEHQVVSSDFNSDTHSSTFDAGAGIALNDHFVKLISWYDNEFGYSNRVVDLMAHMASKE
Data set [3] in a line: HepG2 cell cytotoxicity, dose response, cytotoxicity control for Shn3 inhibitor project, CellTiter-Glo, cherry-picked (AID 624134). The data set is classed as functional, cell-based.
A short description of data set [4]: Shn3 3'UTR reporter inhibitors, dose response, cell-based, Clone20 osteoblasts, firefly luciferase, cherry-picked (AID 624132).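 Note: firefly luciferase luminescence from reporter carrying the Shn3 3'UTR in osteoblasts.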 The data set is classed as functional.
Data set [5] deals with Dual specificity tyrosine-phosphorylation-regulated kinase 1A (Rattus norvegicus, UniProt Q63470). The data set is classed as biochemical, Homo sapiens.
In data set [6] the target is Cyclin-dependent kinase 5/CDK5 activator 1 (Homo sapiens, UniProt Q00535). Kind of data set: CDK5/p35 kinase inhibitors, dose response, biochemical, cherry-picked samples, set 2 (AID 504545).
Sequence of Cyclin-dependent kinase 5/CDK5 activator 1 (Q00535 whole entry): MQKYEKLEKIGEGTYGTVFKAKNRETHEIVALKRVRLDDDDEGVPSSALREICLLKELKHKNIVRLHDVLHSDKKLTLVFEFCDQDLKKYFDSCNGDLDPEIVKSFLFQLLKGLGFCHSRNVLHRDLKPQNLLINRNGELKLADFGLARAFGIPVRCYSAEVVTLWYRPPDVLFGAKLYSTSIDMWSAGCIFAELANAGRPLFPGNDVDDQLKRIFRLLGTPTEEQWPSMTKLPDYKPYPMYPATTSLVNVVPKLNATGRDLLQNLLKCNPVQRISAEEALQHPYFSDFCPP
Sequence of Cyclin-dependent kinase 5/CDK5 activator 1 (Q15078 whole entry, further chain): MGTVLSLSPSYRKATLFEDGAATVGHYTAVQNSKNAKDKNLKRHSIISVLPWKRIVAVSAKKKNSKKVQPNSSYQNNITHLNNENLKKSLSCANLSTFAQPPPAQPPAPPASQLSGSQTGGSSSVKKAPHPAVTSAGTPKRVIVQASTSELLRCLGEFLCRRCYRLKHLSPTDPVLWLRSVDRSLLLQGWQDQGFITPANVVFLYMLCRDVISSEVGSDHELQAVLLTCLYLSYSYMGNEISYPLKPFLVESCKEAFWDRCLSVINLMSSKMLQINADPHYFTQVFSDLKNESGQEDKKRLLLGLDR
Data set [7] can be described thus: control 3'UTR Renilla luciferase suppression, dose response, counter-screen for Shn3 inhibitor project, cell-based, Clone20-Shn3RL, cherry-picked (AID 624133). The data set is classed as functional. In general terms: A counterscreen serves to expose hits that act by an unwanted route or on another target.
Data set [8] has as its target T2, Eukaryotic translation initiation factor 2-alpha kinase 3 (Homo sapiens, UniProt Q9NZJ5).
T2 sequence (Q9NZJ5 whole entry): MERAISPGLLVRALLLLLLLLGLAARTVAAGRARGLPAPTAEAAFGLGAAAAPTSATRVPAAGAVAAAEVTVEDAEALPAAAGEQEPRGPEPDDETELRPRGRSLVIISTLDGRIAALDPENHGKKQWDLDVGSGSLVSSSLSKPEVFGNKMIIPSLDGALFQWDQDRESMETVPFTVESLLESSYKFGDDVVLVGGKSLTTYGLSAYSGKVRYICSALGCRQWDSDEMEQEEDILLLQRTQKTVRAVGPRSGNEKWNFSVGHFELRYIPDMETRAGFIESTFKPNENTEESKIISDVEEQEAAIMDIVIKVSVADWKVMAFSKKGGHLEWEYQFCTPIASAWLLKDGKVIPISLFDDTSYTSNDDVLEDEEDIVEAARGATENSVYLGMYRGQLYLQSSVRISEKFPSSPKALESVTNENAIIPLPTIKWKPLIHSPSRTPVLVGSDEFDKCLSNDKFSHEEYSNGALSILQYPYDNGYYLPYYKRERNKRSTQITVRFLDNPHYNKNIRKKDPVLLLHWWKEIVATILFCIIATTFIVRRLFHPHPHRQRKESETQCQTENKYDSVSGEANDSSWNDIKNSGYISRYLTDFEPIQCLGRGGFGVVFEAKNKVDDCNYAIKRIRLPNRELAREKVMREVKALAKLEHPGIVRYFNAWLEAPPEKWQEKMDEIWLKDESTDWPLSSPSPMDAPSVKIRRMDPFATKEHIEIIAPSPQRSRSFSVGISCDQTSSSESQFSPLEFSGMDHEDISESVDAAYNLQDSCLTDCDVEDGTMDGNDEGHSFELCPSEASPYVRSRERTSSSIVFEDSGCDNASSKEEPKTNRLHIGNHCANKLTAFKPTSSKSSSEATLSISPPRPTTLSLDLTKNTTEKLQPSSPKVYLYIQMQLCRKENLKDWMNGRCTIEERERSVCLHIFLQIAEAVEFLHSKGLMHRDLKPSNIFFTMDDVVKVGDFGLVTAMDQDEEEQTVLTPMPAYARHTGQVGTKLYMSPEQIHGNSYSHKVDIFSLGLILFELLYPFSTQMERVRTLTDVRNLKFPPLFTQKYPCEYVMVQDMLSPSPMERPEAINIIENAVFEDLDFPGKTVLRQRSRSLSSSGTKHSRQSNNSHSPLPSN
Kind of data set: Counterscreen assay for PERK inhibitors: Dose response cell-based high throughput screening assay to measure inhibition of PERK at 6 hours. [Related pubchem assays: 1522, 1416 ]. In kind it is functional.

Data set [9] has as its target T2, Eukaryotic translation initiation factor 2-alpha kinase 3. Kind of data set: Dose response cell-based high-throughput screening assay to measure PERK inhibition. [Related pubchem assays: 1416 ]. The data set is classed as functional.
The nature of data set [10]: Luminescence Cell-Based Dose Retest to Confirm Inhibitors of Cancer Stem Cells. [Related pubchem assays (depositor defined):AID2717, AID2721]. In kind it is functional. To be noted: Homo sapiens.
In another data set the test system is INS1. Kind of data set: beta cell apoptosis inhibitors, cytokine rescue, dose response, luminescence, retest (AID 449756).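 Note: cell death triggered by IL-1 beta plus TNF-alpha plus IFN-gamma mixture; protective hits raise ATP signal compared with cytokine alone wells.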 In kind it is functional, cell-based. To be noted: Rattus norvegicus.
Another data set deals with X-box-binding protein 1 (Homo sapiens, UniProt P17861). The data set is classed as functional, Cricetulus griseus.
Sequence of X-box-binding protein 1 (P17861 whole entry): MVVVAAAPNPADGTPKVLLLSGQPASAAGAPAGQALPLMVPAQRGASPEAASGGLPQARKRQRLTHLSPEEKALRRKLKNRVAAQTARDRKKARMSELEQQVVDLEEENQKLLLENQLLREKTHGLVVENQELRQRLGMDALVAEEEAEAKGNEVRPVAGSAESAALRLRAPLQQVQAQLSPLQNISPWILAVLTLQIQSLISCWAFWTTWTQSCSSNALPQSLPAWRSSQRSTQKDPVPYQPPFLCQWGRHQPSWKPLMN
Data set [11] in a line: HepG2 cell cytotoxicity, dose response, cytotoxicity control for non-replicating M. tuberculosis project (AID 489018). The data set is classed as functional. To be noted: Mycobacterium tuberculosis.
Data set [12] is described as follows: THP-1 cell cytotoxicity, dose response, cytotoxicity control for non-replicating M. tuberculosis project (AID 489025). The data set is classed as functional.
Another data set is described as follows: cells. The data set is classed as functional.
In a further data set the target is Cytochrome P450 2C9 (Homo sapiens, UniProt P11712).
Sequence of Cytochrome P450 2C9 (P11712 whole entry): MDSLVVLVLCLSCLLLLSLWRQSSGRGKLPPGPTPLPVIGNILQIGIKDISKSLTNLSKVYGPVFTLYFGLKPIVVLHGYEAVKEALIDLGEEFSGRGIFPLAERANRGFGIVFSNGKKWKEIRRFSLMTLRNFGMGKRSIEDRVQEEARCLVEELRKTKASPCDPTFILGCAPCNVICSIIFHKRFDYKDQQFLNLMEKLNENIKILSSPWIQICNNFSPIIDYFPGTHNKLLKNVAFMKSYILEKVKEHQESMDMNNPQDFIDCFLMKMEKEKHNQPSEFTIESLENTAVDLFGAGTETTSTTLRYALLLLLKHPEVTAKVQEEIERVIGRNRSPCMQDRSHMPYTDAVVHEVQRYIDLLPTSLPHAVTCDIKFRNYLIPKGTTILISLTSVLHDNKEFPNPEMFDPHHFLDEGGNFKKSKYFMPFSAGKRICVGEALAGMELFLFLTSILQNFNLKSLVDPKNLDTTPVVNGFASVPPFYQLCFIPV
The subject of data set [13] is BJ. Put plainly: cells. The data set is classed as functional, cell-based. To be noted: Homo sapiens.
The nature of data set [14]: inhibitors of PGC1a acetylation in cells, dose response, cell-based, cherry-picked samples (AID 720514).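 Note: potency may reflect raised or lowered acetylation signal.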 In kind it is functional.
For data set [15], the system named is BJ. Kind of data set: cytotoxicity toward BJ-TERT fibroblasts, dose response, cell-based, RAS-independent, luminescence (AID 1933). The data set is classed as functional. To be noted: Homo sapiens.
The nature of data set [16]: growth suppression of beta-catenin-knockout colon cells, dose response, cell-based, HCT116, human colon tumor (AID 1045).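 Note: HCT116 colon tumor cells with beta catenin knocked out; cells exposed to compound for 60 hours.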 The data set is classed as functional.
Data set [17] deals with T3, Hepatocyte nuclear factor 4-alpha (Homo sapiens, UniProt P41235).
T3 sequence (P41235 whole entry): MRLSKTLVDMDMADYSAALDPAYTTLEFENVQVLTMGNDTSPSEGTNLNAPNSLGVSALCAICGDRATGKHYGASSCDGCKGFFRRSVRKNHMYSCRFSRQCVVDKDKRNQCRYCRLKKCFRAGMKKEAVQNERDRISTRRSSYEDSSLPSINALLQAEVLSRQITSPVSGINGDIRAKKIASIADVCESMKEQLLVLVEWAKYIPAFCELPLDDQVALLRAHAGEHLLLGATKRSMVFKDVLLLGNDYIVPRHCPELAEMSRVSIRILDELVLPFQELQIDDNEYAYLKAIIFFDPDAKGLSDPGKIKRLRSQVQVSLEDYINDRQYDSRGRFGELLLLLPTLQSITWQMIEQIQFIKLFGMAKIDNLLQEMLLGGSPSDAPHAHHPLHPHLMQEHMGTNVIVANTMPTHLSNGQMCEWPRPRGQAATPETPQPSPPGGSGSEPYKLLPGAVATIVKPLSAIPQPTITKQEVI
In kind it is functional, cell-based.

Data set [18] relates to BJ. Kind of data set: cytotoxicity toward BJ-TERT-LT-ST fibroblasts, dose response, cell-based, RAS-independent, luminescence (AID 1935).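 Note: BJ fibroblasts immortalized with TERT plus LT and ST oncogenes.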 The data set is classed as functional. To be noted: Homo sapiens.
Data set [19] is described as follows: growth suppression of PTEN-null colon cells, dose response, cell-based, HCT116 PTEN knockout (AID 1047).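 Note: HCT116 colon tumor cells with PTEN knocked out; cells exposed to compound for 60 hours before readout; potency for loss of cell viability measured by luminescence.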 The data set is classed as functional.
A short description of data set [20]: cytotoxicity toward DRD oncogenic fibroblasts, dose response, cell-based, non-viral oncogenic, luminescence (AID 1934). The data set is classed as functional. To be noted: Homo sapiens.
A further data set has as its system HeLa. Kind of data set: HeLa cell cytotoxicity, dose response, cytotoxicity control, 24 h, cherry-picked samples (AID 504726).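 Note: potency for cytotoxicity as loss of luminescence signal.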 The data set is classed as functional, cell-based. To be noted: Homo sapiens.
Data set [21] in a line: inhibitors of SNCA 5'UTR-driven reporter translation, confirmation, H4 neuroglioma cells, luminescence (AID 1988). In kind it is functional, cell-based.
A short description of data set [22]: Luminescence Cell-Based Dose Response HTS to Identify Inhibitors of 5'UTR Stem-Loop Driven Prion Protein mRNA Translation in H4 Neuroglioblastoma Cells. [Related pubchem assays: 1827 (Project Summary), 1813 (Primary HTS)]. In kind it is functional.
The nature of data set [23]: microbe, parasite or virus in culture. In kind it is functional. To be noted: Mycobacterium tuberculosis.
Data set [24] is described as follows: Vero E6 cell cytotoxicity, dose response, cytotoxicity control for non-replicating M. tuberculosis project, secondary assay (AID 492998). In kind it is functional, VeroE6. To be noted: Vero C1008.
Data set [25] can be described thus: inhibitors of firefly luciferase expression or activity, dose response, H4 neuroglioma cells, luminescence (AID 1990). In kind it is functional, cell-based.
Another data set deals with Vero. Put plainly: cells. In kind it is functional. To be noted: Chlorocebus sabaeus.

As usually defined, the IC50 is the concentration that gives 50% inhibition. What is called AC50 is the midpoint of the concentration-response curve, whichever way the signal moves. One may read the EC50 as the concentration that produces a half-maximal response.

SMILES strings stand for the structures. The source made the active and inactive calls. A value given as a limit tells only on which side of the number the result lay.
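Throughout, for Absolute IC50 (XBP1): confirmatory dose-response counter-screen serving a CHOP assay.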

Consider `O=C(O)c1cc(-c2ccc(Cl)cc2)n[nH]1`, for which the IC50 in data set [1] was 6.14 µM (active); in data set [2], > 100 µM (not active).
`Cc1[nH]nc2c1-c1nc3ccccc3nc1C(C)(C)C2`: the AC50 in [3] is 24.4 µM (active); in data set [4] it was 4.2 µM (active); in data set [5], 2.38 µM (active); in data set [6] it was 14.7 µM (active); in data set [7], 9.03 µM (active).
Turning to `COc1cc(Cl)ccc1S(=O)(=O)Nc1ccc2ccccc2c1`, the IC50 in data set [1] was > 100 µM (inactive); in data set [2], > 100 µM (not active).
With `O=C(O)c1ccc(C[S+]([O-])c2cccc(C(F)(F)F)c2)o1` (configuration not stated), the concentration giving a half-maximal response (EC50) in [8] and in data set [9] was > 55.7 µM (not active) throughout.
As for `CCOC(=O)c1c(C)noc1-c1ccc(Br)o1`, the concentration giving a half-maximal response (EC50) in data set [8] and in [9] was > 55.7 µM (not active) throughout.
`FC(F)(F)c1nnc(-c2ccccc2)nc1Sc1ccc(Cl)cc1`: the AC50 is 4 µM (active) in data set [10]; 31.4 µM (active) in data set [3]; 14.7 µM (active) in [4]; 9.75 µM (active) with INS1; 21 µM (active) in [7]. For the same compound, at X-box-binding protein 1, the “Absolute IC50 (XBP1)” value was determined as 10 µM.
Take `Cc1nc(-c2ccc(C(F)(F)F)cc2)sc1C(=O)NN`: the values for the CC50 in [11] and in data set [12] were > 20 µM (active) and 20.7 µM (active), respectively. For the same compound, in the data set “cells”, the IC50 was 35.9 µM (active).
Regarding `CCC(=O)Nc1cccc(C(=O)/C=C/c2ccccc2)c1`, the AC50 entry on Cytochrome P450 2C9 is “inconclusive”; in [14], 14.2 µM (active); with HeLa it was 23.6 µM (active). Moreover, the half-maximal effective concentration (EC50) in the data set on BJ [13] was 26 µM (active); in the data set with BJ [15], 9.74 µM (inconclusive); in data set [16], 2.34 µM (active); with BJ [18], 20.9 µM (inconclusive); in data set [19] it was 2.4 µM (active); in [20], 11.2 µM (active). The IC50 in [17] is 2.86 µM (active).
As for `CCCCCC(=O)N/N=C(\C)c1ccccn1`, the concentration giving a half-maximal response (EC50) was 5.13 µM (active) in data set [21], 7.26 µM (active) in data set [22] and 12.5 µM (active) in data set [25]. Also, the CC50 in data set [11] is > 20 µM (active); in data set [23], 21.4 µM (active); in [24] it was 13.3 µM (active); in data set [12] it was 11.1 µM (active). Also, the IC50 in the data set “cells” is 10.3 µM (active).
Consider `COc1cc(OC)c(OC)cc1/C=N/Nc1[nH]cnc2c3ccccc3nc1-2`, for which the “Absolute IC50 (XBP1)” value on X-box-binding protein 1 was 10 µM. The CC50 in the data set with Vero is > 25 µM (active).
